Assay results taken from patent publication US20090197897A1, “Novel Oxadiazole Derivatives and Their Use as Positive Allosteric Modulators of Metabotropic Glutamate Receptors” (Addex Pharma SA, priority 2005, published 2009).

Legend:
rat mGluR5 = molecular target: T1, rat mGluR5 (Rattus norvegicus, UniProt P31424); assay: mGluR5 assay on HEK-expressing rat mGluR5 (fluorescent cell based Ca2+ mobilization assay); settings: for activation of rat mGluR5 receptors in HEK-rat mGluR5 cell line: without co-addition of glutamate or mGluR5 agonist; for EC50: HEK-293 cells stably expressing rat mGluR5, no co-addition of glutamate, mean of at least three independent experiments in duplicate, read-out: Ca++ Flux (mean EC50)
T1 construct: expressed in transfected cells
T1 sequence (P31424 21-1171 isoform P31424-2 limits assumed): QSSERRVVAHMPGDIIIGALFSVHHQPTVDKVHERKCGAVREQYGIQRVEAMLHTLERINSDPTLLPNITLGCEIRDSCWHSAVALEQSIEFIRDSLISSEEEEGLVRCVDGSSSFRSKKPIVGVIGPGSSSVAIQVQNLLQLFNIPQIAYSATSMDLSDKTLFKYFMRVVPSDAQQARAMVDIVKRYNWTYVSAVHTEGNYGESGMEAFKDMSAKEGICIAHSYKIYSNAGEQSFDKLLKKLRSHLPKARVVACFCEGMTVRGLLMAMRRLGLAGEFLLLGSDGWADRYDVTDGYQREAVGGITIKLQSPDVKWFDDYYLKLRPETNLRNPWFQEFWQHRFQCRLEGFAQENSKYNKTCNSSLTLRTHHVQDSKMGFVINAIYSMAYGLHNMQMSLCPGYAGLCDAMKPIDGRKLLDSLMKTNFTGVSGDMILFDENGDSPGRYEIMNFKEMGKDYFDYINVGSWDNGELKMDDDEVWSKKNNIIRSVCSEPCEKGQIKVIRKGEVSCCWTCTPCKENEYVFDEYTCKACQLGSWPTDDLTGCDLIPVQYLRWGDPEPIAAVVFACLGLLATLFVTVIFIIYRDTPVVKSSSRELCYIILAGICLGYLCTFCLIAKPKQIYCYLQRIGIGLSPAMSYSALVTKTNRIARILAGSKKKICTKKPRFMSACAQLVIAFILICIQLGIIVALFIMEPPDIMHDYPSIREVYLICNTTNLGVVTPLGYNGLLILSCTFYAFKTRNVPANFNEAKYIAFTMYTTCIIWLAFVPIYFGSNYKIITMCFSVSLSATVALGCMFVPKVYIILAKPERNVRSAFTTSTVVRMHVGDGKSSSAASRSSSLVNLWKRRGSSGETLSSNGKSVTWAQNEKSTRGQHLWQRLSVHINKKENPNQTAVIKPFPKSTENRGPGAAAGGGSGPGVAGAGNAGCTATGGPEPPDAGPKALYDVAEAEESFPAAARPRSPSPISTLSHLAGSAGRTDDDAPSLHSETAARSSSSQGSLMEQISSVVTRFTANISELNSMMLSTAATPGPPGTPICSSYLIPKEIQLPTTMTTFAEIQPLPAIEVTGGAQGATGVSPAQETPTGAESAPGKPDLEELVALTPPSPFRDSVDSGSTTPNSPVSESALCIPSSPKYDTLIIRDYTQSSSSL
Procedure: mGluR5 Assay on HEK-Expressing Rat mGluR5
Positive functional expression of HEK-293 cells stably expressing rat mGluR5 receptor was determined by measuring intracellular Ca^2+ changes using a Fluorometric Imaging Plate Reader (FLIPR, Molecular Devices, Sunnyvale, Calif.) in response to glutamate or selective known mGluR5 agonists and antagonists. Rat mGluR5 RT-PCR products in HEK-293 cells were sequenced and found 100% identical to rat mGluR5 Genbank reference sequence (NM_017012). HEK-293 cells expressing rmGluR5 were maintained in media containing DMEM, dialyzed Fetal Bovine Serum (10%), Glutamax™ (2 mM), Penicillin (100 units/ml), Streptomycin (100 μg/ml), Geneticin (100 μg/ml) and Hygromycin-B (40 μg/ml) at 37° C./5% CO2.
After one day of incubation, cells were washed with assay buffer containing: 142 mM NaCl, 6 mM KCl, 1 mM […], 1 mM CaCl2, 20 mM HEPES, 1 g/L glucose, 0.125 mM sulfinpyrazone, pH 7.4. After 60 min of loading with 4 uM Fluo-4 (TefLabs, Austin, Tex.), the cells were washed three times with 50 μl of PBS Buffer and resuspended in 45 μl of assay Buffer. The plates were then transferred to a Fluorometric Imaging Plate Reader (FLIPR, Molecular Devices, Sunnyvale, Calif.) for the assessment of intracellular calcium flux. After monitoring the baseline fluorescence for 10 seconds, increasing concentrations of representative compound (from 0.01 to 60 μM) of the present invention diluted in Assay Buffer (15 μl of 4× dilutions) was added to the cell. The final DMSO concentration in the assay was 0.3%. In each experiment, fluorescence was then monitored as a function of time for 3 minutes and the data analyzed using Microsoft Excel and GraphPad Prism. Each data point was also measured two times.
Under these experimental conditions, this HEK-rat mGluR5 cell line is able to directly detect positive allosteric modulators without the need of co-addition of glutamate or mGluR5 agonist.
The concentration-response curves of representative compounds of the present invention were generated using the Prism GraphPad software (Graph Pad Inc, San Diego, USA). The curves were fitted to a four-parameter logistic equation:
(Y=Bottom+(Top−Bottom)/(1+10̂((Log EC50−X)*Hill Slope)
allowing determination of EC50 values.
The Table 1 below represents the mean EC50 obtained from at least three independent experiments of selected molecules performed in duplicate.

mGluR5 = molecular target: T2, mGluR5 (Rattus norvegicus, UniProt P31424); settings: Liu et al 2006, Zhang et al 2005; cited from earlier work
T2 construct: positive allosteric modulators of mGluR5 receptors in native preparations; endogenous in cells; host or cells: primary cortical astrocytes from Sprague-Dawley rat embryos (day 16 to 19)
T2 sequence (P31424 21-1203): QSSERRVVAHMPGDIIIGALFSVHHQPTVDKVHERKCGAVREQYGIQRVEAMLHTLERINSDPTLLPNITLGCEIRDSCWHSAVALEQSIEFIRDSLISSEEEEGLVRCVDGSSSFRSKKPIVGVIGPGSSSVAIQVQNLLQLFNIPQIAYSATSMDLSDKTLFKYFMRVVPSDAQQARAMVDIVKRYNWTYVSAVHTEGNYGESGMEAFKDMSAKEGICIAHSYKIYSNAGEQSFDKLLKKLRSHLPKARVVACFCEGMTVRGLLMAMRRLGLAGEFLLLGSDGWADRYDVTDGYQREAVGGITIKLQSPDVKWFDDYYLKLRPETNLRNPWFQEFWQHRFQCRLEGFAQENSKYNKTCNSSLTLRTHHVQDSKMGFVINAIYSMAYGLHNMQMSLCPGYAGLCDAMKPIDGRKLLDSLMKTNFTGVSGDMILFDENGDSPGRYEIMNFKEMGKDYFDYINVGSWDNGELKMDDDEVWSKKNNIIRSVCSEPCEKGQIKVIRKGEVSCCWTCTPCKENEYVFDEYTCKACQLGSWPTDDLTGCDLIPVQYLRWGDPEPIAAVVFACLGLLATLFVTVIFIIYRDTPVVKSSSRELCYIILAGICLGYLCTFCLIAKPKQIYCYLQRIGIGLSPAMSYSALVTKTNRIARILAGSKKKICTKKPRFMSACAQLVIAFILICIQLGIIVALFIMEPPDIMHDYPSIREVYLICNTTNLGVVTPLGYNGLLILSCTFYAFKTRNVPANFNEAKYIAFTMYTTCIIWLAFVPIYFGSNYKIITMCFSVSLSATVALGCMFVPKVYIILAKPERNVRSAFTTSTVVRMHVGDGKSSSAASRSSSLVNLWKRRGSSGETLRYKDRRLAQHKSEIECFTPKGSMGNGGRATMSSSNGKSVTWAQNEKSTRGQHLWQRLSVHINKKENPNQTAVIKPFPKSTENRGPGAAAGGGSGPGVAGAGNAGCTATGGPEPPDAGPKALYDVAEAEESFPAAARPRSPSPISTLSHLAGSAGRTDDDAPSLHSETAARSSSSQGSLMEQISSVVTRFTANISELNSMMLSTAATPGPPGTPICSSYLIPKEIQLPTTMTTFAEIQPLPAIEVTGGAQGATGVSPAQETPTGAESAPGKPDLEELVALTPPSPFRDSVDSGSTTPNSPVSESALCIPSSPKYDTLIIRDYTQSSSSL

Row | Compound | activation of rat mGluR5 receptors in HEK-rat mGluR5 cell line (rat mGluR5) | EC50 (rat mGluR5) [nM] | melting point [°C] | activity in rat cortical astrocytes culture in the absence of added glutamate (mGluR5)
1 | N#Cc1cccc(C(=O)Nc2cc(-c3ccccc3)nn2-c2ccccc2)c1 [CDPPB, reference compound] | activating |  |  | inactive
2 | O=C(Nc1ccc(Cl)cc1CN1C(=O)c2ccccc2C1=O)c1ccccc1O [CPPHA, reference compound] | activating |  |  | inactive
3 | Fc1cccc(/C=N/N=C/c2cccc(F)c2)c1 [DFB, reference compound] | activating |  |  | inactive
4 | O=C(C1CCOCC1)N1CCC[C@H](c2nc(-c3ccc(F)cc3)no2)C1 [Example 9, {(S)-3-[3-(4-Fluoro-phenyl)-[1,2,4]oxadiazol-5-yl]-piperidin-1-yl}-(tetrahydro-pyran-4-yl)-methanone] |  | 1000 to 10000 | 98 to 100 | 
5 | O=C(C1CCCCC1)N1CCC[C@H](c2nc(-c3ccc(F)cc3)no2)C1 [Example 10, Cyclohexyl-{(S)-3-[3-(4-fluoro-phenyl)-[1,2,4]oxadiazol-5-yl]-piperidin-1-yl}-methanone] |  | 1000 to 10000 | 80 to 85 | 
6 | O=C(c1ccccc1)c1cccc(C(=O)N2CCC[C@H](c3nc(-c4ccc(F)cc4)no3)C2)c1 [Example 11, (3-Benzoyl-phenyl)-{(S)-3-[3-(4-fluoro-phenyl)-[1,2,4]oxadiazol-5-yl]-piperidin-1-yl}-methanone] |  | 1000 to 10000 | 158 to 163 | 
7 | O=C(c1c(F)cc(F)cc1F)N1CCC[C@H](c2nc(-c3ccc(F)cc3)no2)C1 [Example 12, {(S)-3-[3-(4-Fluoro-phenyl)-[1,2,4]oxadiazol-5-yl]-piperidin-1-yl}-(2,4,6-trifluoro-phenyl)-methanone] |  | 1000 to 10000 | 125 to 130 | 
8 | Cc1ncccc1C(=O)N1CCC[C@H](c2nc(-c3ccc(F)cc3)no2)C1 [Example 16, {(S)-3-[3-(4-Fluoro-phenyl)-[1,2,4]oxadiazol-5-yl]-piperidin-1-yl}-(2-methyl-pyridin-3-yl)-methanone] |  | 1000 to 10000 | 115 to 116 | 
9 | Cc1cc(C(=O)N2CCC[C@H](c3nc(-c4ccc(F)cc4)no3)C2)c(C)n1C [Example 17, {(S)-3-[3-(4-Fluoro-phenyl)-[1,2,4]oxadiazol-5-yl]-piperidin-1-yl}-(1,2,5-trimethyl-1H-pyrrol-3-yl)-methanone] |  | 1000 to 10000 | 122 to 126 | 
10 | Cc1cc(C(=O)N2CCC[C@H](c3nc(-c4ccc(F)cc4)no3)C2)c(C)o1 [Example 23, (2,5-Dimethyl-furan-3-yl)-{(S)-3-[3-(4-fluoro-phenyl)-[1,2,4]oxadiazol-5-yl]-piperidin-1-yl}-methanone] |  | < 1000 | 114 to 118 | 
11 | O=C(c1cccc2c1OCCO2)N1CCC[C@H](c2nc(-c3ccc(F)cc3)no2)C1 [Example 25, (S)-(2,3-Dihydro-benzo[1,4]dioxin-5-yl)-{3-[3-(4-fluoro-phenyl)-[1,2,4]oxadiazol-5-yl]-piperidin-1-yl}-methanone] |  | 1000 to 10000 | 57 to 60 | 

Second part, led by results:

Row | activation of rat mGluR5 receptors in HEK-rat mGluR5 cell line (rat mGluR5) | EC50 (rat mGluR5) [nM] | melting point [°C] | Compound | activity in rat cortical astrocytes culture in the absence of added glutamate (mGluR5)
12 |  | 1000 to 10000 | 109 to 111 | COc1cc(C(=O)N2CCC[C@H](c3nc(-c4ccc(F)cc4)no3)C2)ccc1F [Example 26, (S)-(4-Fluoro-3-methoxy-phenyl)-{3-[3-(4-fluoro-phenyl)-[1,2,4]oxadiazol-5-yl]-piperidin-1-yl}-methanone] | 
13 |  | 1000 to 10000 | 59 to 63 | Cc1cnccc1C(=O)N1CCC[C@H](c2nc(-c3ccc(F)cc3)no2)C1 [Example 27, (S)-{3-[3-(4-Fluoro-phenyl)-[1,2,4]oxadiazol-5-yl]-piperidin-1-yl}-(3-methyl-pyridin-4-yl)-methanone] | 
14 |  | 1000 to 10000 | 167.5 to 168.9 | Cc1c[nH]cc1C(=O)N1CCC[C@H](c2nc(-c3ccc(F)cc3)no2)C1 [Example 43, {(S)-3-[3-(4-Fluoro-phenyl)-[1,2,4]oxadiazol-5-yl]-piperidin-1-yl}-(4-methyl-1H-pyrrol-3-yl)-methanone] | 
15 |  | < 1000 | 92 to 97 | O=C(c1ccc(F)c(F)c1)N1CCC[C@H](c2nc(-c3ccsc3)no2)C1 [Example 45, (3,4-Difluoro-phenyl)-[(S)-3-(3-thiophen-3-yl-[1,2,4]oxadiazol-5-yl)-piperidin-1-yl]-methanone] | 
16 |  | 1000 to 10000 | 118 to 120 | O=C(c1ccc(F)cc1)N1CCC[C@H](c2nc(-c3cscn3)no2)C1 [Example 50, (4-Fluoro-phenyl)-[(S)-3-(3-thiazol-4-yl-[1,2,4]oxadiazol-5-yl)-piperidin-1-yl]-methanone] | 
17 |  | 1000 to 10000 | 107 to 109 | O=C(c1ccc(F)c(F)c1)N1CCC[C@H](c2nc(-c3cscn3)no2)C1 [Example 51, (3,4-Difluoro-phenyl)-[(S)-3-(3-thiazol-4-yl-[1,2,4]oxadiazol-5-yl)-piperidin-1-yl]-methanone] | 
18 |  | < 1000 | 102 to 106 | O=C(c1ccc(F)c(F)c1)N1CCC[C@H](c2nc(-c3ccncc3)no2)C1 [Example 52, (3,4-Difluoro-phenyl)-[(S)-3-(3-pyridin-4-yl-[1,2,4]oxadiazol-5-yl)-piperidin-1-yl]-methanone] | 
19 |  | < 1000 | 135 to 137 | O=C(c1ccc(F)c(F)c1)N1CCC[C@H](c2nc(-c3ccccn3)no2)C1 [Example 54, (3,4-Difluoro-phenyl)-[(S)-3-(3-pyridin-2-yl-[1,2,4]oxadiazol-5-yl)-piperidin-1-yl]-methanone] | 
20 |  | > 10000 | 147 to 153 | CN(C)c1ccc(-c2noc([C@H]3CCCN(C(=O)c4ccc(F)cc4)C3)n2)cc1 [Example 58, {(S)-3-[3-(4-Dimethylamino-phenyl)-[1,2,4]oxadiazol-5-yl]-piperidin-1-yl}-(4-fluoro-phenyl)-methanone] | 
21 |  | < 1000 | 93 to 95 | O=C(c1ccnc(F)c1)N1CCC[C@H](c2nc(-c3ccc(F)cc3)no2)C1 [Example 77, {(S)-3-[3-(4-Fluoro-phenyl)-[1,2,4]oxadiazol-5-yl]-piperidin-1-yl}-(2-fluoro-pyridin-4-yl)-methanone] | 
